Columns and labels:
[1] = IV BCV single ascending dose study in healthy subjects: safety; assay type: in vivo, human
Experimental: Plasma PK samples were collected over 7 days and assayed by HPLC-MS. Plasma BCV PK parameters were determined by non-compartmental analysis and dose proportionality was assessed. Safety assessments were collected over 14 days.

[2] = Maximum tolerated dose study, single 2-hour IV infusion (Phase 1); assay type: in vivo, Sprague-Dawley CD rats
Experimental: For Phase 1, Sprague-Dawley CD® rats (2/sex/dosing interval) were dosed with brincidofovir via 2-hour IV infusion once at 2, 4, 10 or 15 mg/kg. The maximum feasible dose (MFD) was limited to 15 mg/kg because of increased hemolytic potential when the concentration of brincidofovir exceeds 1 mg/mL in the dosing solution. The dose volume was 10 mL/kg/hr for all dosing intervals. Each dose administration was followed by a 2-3 day observation period. At the end of the Phase 1 treatment period, all animals were euthanized and discarded without macroscopic examination.
For Phase 1 (MTD), up to four dose levels of brincidofovir were administered as escalating single doses in naïve male and female rats via intravenous infusion (2-hour). Each dose administration was followed by a 2-3 day observation period. Each subsequent dose level was increased and administered to naïve animals based on the response to the preceding doses until the maximum tolerated dose (MTD) was identified, or until the maximum feasible dose (MFD) based on prior evidence of hemolysis of 15 mg/kg was achieved.
During Phase 1, each animal received a single dose administered via intravenous infusion (2-hours), followed by a 2-3 day observation period after each dose interval. Following the single intravenous (2-hour) infusion, the animals had their jackets and dosing sets removed and were not returned to saline maintenance.
For dose observations, Phase 1: Signs of poor health or toxic or pharmacologic effects (e.g., abnormalities in general condition, appearance, activity, behavior, respiration, etc.) observed during infusion period were recorded.

[3] = Cohort 1, BCV 10 mg 2 h infusion, n = 6
[4] = Cohort 2, BCV 25 mg 2 h infusion, n = 6
[5] = Cohort 3, BCV 50 mg 2 h infusion, n = 9
[6] = Cohort 4, BCV 50 mg 4 h infusion, n = 9

CCCCCCCCCCCCCCCCOCCCOP(=O)(O)CO[C@H](CO)Cn1ccc(N)nc1=O [Brincidofovir]
Drug-Related AEs: Decreased appetite (number of subjects) [1, 3]: 0 | Drug-Related AEs: Diarrhea (number of subjects) [1, 3]: 0 | Drug-Related AEs: Elevated liver transaminases (number of subjects) [1, 3]: 0 | Drug-Related AEs: Headache (number of subjects) [1, 3]: 0 | Drug-Related AEs: Nausea (number of subjects) [1, 3]: 0 | Drug-Related AEs: Pain, phlebitis at infusion site (number of subjects) [1, 3]: 0 | Grade 3 or 4 Drug-Related AEs: Decreased appetite (number of subjects) [1, 3]: 0 | Grade 3 or 4 Drug-Related AEs: Diarrhea (number of subjects) [1, 3]: 0 | Grade 3 or 4 Drug-Related AEs: Elevated liver transaminases (number of subjects) [1, 3]: 0 | Grade 3 or 4 Drug-Related AEs: Headache (number of subjects) [1, 3]: 0 | Grade 3 or 4 Drug-Related AEs: Nausea (number of subjects) [1, 3]: 0 | Grade 3 or 4 Drug-Related AEs: Pain, phlebitis at infusion site (number of subjects) [1, 3]: 0 | Drug-Related AEs: Decreased appetite (number of subjects) [1, 4]: 0 | Drug-Related AEs: Diarrhea (number of subjects) [1, 4]: 0 | Drug-Related AEs: Elevated liver transaminases (number of subjects) [1, 4]: 0 | Drug-Related AEs: Headache (number of subjects) [1, 4]: 0 | Drug-Related AEs: Nausea (number of subjects) [1, 4]: 0 | Drug-Related AEs: Pain, phlebitis at infusion site (number of subjects) [1, 4]: 0 | Grade 3 or 4 Drug-Related AEs: Decreased appetite (number of subjects) [1, 4]: 0 | Grade 3 or 4 Drug-Related AEs: Diarrhea (number of subjects) [1, 4]: 0 | Grade 3 or 4 Drug-Related AEs: Elevated liver transaminases (number of subjects) [1, 4]: 0 | Grade 3 or 4 Drug-Related AEs: Headache (number of subjects) [1, 4]: 0 | Grade 3 or 4 Drug-Related AEs: Nausea (number of subjects) [1, 4]: 0 | Grade 3 or 4 Drug-Related AEs: Pain, phlebitis at infusion site (number of subjects) [1, 4]: 0 | Drug-Related AEs: Decreased appetite (number of subjects) [1, 5]: 0 | Drug-Related AEs: Diarrhea (% of subjects) [1, 5]: (11%) | Drug-Related AEs: Diarrhea (number of subjects) [1, 5]: 1 | Drug-Related AEs: Elevated liver transaminases (number of subjects) [1, 5]: 0 | Drug-Related AEs: Headache (% of subjects) [1, 5]: (22%) | Drug-Related AEs: Headache (number of subjects) [1, 5]: 2 | Drug-Related AEs: Nausea (number of subjects) [1, 5]: 0 | Drug-Related AEs: Pain, phlebitis at infusion site (% of subjects) [1, 5]: (11%) | Drug-Related AEs: Pain, phlebitis at infusion site (number of subjects) [1, 5]: 1 | Grade 3 or 4 Drug-Related AEs: Decreased appetite (number of subjects) [1, 5]: 0 | Grade 3 or 4 Drug-Related AEs: Diarrhea (number of subjects) [1, 5]: 0 | Grade 3 or 4 Drug-Related AEs: Elevated liver transaminases (number of subjects) [1, 5]: 0 | Grade 3 or 4 Drug-Related AEs: Headache (number of subjects) [1, 5]: 0 | Grade 3 or 4 Drug-Related AEs: Nausea (number of subjects) [1, 5]: 0 | Grade 3 or 4 Drug-Related AEs: Pain, phlebitis at infusion site (number of subjects) [1, 5]: 0 | Drug-Related AEs: Decreased appetite (% of subjects) [1, 6]: (11%) | Drug-Related AEs: Decreased appetite (number of subjects) [1, 6]: 1 | Drug-Related AEs: Diarrhea (% of subjects) [1, 6]: (33%) | Drug-Related AEs: Diarrhea (number of subjects) [1, 6]: 3 | Drug-Related AEs: Elevated liver transaminases (% of subjects) [1, 6]: (11%) | Drug-Related AEs: Elevated liver transaminases (number of subjects) [1, 6]: 1 | Drug-Related AEs: Headache (% of subjects) [1, 6]: (22%) | Drug-Related AEs: Headache (number of subjects) [1, 6]: 2 | Drug-Related AEs: Nausea (% of subjects) [1, 6]: (22%) | Drug-Related AEs: Nausea (number of subjects) [1, 6]: 2 | Drug-Related AEs: Pain, phlebitis at infusion site (number of subjects) [1, 6]: 0 | Grade 3 or 4 Drug-Related AEs: Decreased appetite (number of subjects) [1, 6]: 0 | Grade 3 or 4 Drug-Related AEs: Diarrhea (number of subjects) [1, 6]: 0 | Grade 3 or 4 Drug-Related AEs: Elevated liver transaminases (% of subjects) [1, 6]: (11%) | Grade 3 or 4 Drug-Related AEs: Elevated liver transaminases (number of subjects) [1, 6]: 1 | Grade 3 or 4 Drug-Related AEs: Headache (number of subjects) [1, 6]: 0 | Grade 3 or 4 Drug-Related AEs: Nausea (number of subjects) [1, 6]: 0 | Grade 3 or 4 Drug-Related AEs: Pain, phlebitis at infusion site (number of subjects) [1, 6]: 0 | Adverse events ([1]; IV 10 mg and 25 mg): No drug related adverse events | Safety and tolerability ([1]; IV 10 mg and 25 mg): generally safe and well-tolerated | Bilirubin ([1]; any cohort): No Grade 2 or higher bilirubin | ALT elevations ([1]; cohort 4): transient grade 2-3 ALT elevations | Serious adverse events ([1]; human, in vivo): no serious adverse events occurred | Tolerability ([1]; single doses 10-50 mg, 2h IV infusion): well tolerated | ALT elevations ([1]; therapeutic IV exposures (cohorts 1 and 2)): no grade 2 or higher ALT elevations were observed | Survival ([2]; 2, 4, 10 or 15 mg/kg): survived until their scheduled euthanasia | Tolerability ([2]; 2, 4, 10 or 15 mg/kg single 2-hour IV infusion): all doses were well tolerated | Clinical signs ([2]; Dose 1 (2 mg/kg), both males): rapid breath and hunched posture, with and without piloerection, partially closed eyes, and decreased activity | Clinical signs ([2]; Dose 2 (4 mg/kg), both males and one female): irregular breathing | Clinical signs ([2]; Dose 3 (10 mg/kg)): No clinical signs were observed | Clinical signs ([2]; Dose 4 (15 mg/kg), both males and one female): decreased activity with or without irregular breathing, piloerection, and bilateral partially closed eyes | Maximum feasible dose (MFD) ([2]; single 2-hour IV infusion): 15 mg/kg

Source: patent publication US20170368082A1, “FORMULATIONS OF BRINCIDOFOVIR” (priority 2016, published 2017)
